The record followed here is ChEMBL document CHEMBL5042479, “Synthesis and Characterization of New V1A Antagonist Compounds: The Separation of Four Atropisomeric Stereoisomers” (J Med Chem, 2021).

Data set [1] has as its target T1, Vasopressin V2 receptor (Homo sapiens, UniProt P30518). Kind of data set: Displacement of [3H]-labelled arginine-vasopressin from human V2 receptor expressed in human 1321N1 cell membranes at 1 uM incubated for 60 mins by radioligand binding assay. Conditions: Membrane.
The target in data set [2] is T2, Vasopressin V1a receptor (Homo sapiens, UniProt P37288). Kind of data set: Inhibition of human V1A receptor expressed in human 1321N1 cells assessed as calcium mobilization by fluorescent plate reader. Type of data set: functional, cell-based.
Target sequence in this assay (P37288 whole entry): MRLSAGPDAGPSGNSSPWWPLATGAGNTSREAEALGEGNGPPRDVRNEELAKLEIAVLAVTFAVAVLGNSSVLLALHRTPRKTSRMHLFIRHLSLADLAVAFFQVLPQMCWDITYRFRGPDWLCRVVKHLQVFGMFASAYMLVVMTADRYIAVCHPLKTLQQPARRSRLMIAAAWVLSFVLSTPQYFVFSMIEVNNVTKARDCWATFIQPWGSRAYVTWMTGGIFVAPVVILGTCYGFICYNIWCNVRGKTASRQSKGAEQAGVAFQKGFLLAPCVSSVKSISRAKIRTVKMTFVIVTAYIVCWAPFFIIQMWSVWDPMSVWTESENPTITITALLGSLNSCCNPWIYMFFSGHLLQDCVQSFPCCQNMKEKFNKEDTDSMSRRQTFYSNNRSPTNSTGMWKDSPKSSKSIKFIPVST
Data set [3] has as its target T2, Vasopressin V1a receptor. Kind of data set: Displacement of [3H]-arginine-vasopressin from human V1A receptor expressed in human 1321N1 cell membranes incubated for 60 mins by radioligand binding assay. Set-up: species or system Membrane.
Target sequence in this assay (P37288 whole entry): as above
Data set [4] is described as follows: Permeability directional ratio in mouse Caco-2 cells. The settings on record: human.
Data set [5] is described as follows: Apparent permeability across apical to basolateral side in mouse Caco-2 cells. Conditions: human.
A short description of data set [6]: Intrinsic clearance in human liver microsomes in presence of reduced NADPH.
Data set [7] concerns 1321N1. Kind of data set: Selectivity ratio of Ki for human V2 receptor expressed in human 1321N1 cell membranes to Ki for human V1A receptor expressed in human 1321N1 cell membranes. Type of data set: cell-based.
Data set [8] can be described thus: Intrinsic clearance in mouse liver microsomes in presence of reduced NADPH.
Data set [9] can be described thus: physchem. Conditions: PBS, pH 7.4.
Description: Kinetic solubility of compound in PBS at pH 7.4 incubated for 2 hrs by HPLC-MS analysis
Data set [10] can be described thus: Intrinsic clearance in rat liver microsomes in presence of reduced NADPH.
The target of data set [11] is T2, Vasopressin V1a receptor. Kind of data set: Displacement of [3H]-labelled arginine-vasopressin from human V1A receptor expressed in human 1321N1 cell membranes at 5 nM incubated for 60 mins by radioligand binding assay. Conditions: Membrane.
Target sequence in this assay (P37288 whole entry, looked up): as the sequence (P37288 whole entry) above
Data set [12] concerns the target T1, Vasopressin V2 receptor. Kind of data set: Displacement of [3H]-arginine-vasopressin from human V2 receptor expressed in human 1321N1 cell membranes incubated for 60 mins by radioligand binding assay. Set-up: species or system Membrane.

In brackets after ≈: the same amount, converted by molar mass.

T1 sequence (P30518 whole entry): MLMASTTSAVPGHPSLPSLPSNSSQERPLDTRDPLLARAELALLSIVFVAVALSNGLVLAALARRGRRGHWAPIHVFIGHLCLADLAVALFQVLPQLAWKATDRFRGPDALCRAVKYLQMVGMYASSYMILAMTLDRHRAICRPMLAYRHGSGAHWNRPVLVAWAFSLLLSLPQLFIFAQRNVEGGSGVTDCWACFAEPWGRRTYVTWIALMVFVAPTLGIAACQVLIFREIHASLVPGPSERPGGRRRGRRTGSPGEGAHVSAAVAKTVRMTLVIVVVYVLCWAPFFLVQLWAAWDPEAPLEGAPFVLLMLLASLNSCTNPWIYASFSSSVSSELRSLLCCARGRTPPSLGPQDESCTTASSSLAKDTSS

For the compound `CN1Cc2cc(Cl)ccc2-n2c(nnc2C2CCN(c3ccccn3)CC2)C1`, the inhibition in [1] stood at 13%.

For the compound `Cc1ccc2c(c1)-n1c(nnc1[C@H]1CC[C@H](Oc3ccccn3)CC1)CC(O)C2` (stereo partly specified), in data set [1], the inhibition was found to be 3%. In data set [2], the IC50 is 390 nM. The same compound showed a Ki in data set [3] of 34 nM.

For `CN(C)CCn1cc(C(=O)N2CCC3(CC2)OCc2ccccc23)c2ccc(Cl)cc21`, in data set [1], the inhibition was -6%.

Consider `Cc1cccc2c1-n1c(nnc1[C@H]1CC[C@H](Oc3ccccn3)CC1)C[C@H](O)C2` (atropisomer aR) [listing 1 of 2 here], for which the Ki in data set [3] was determined as 11 nM.

As for `Cc1cccc2c1-n1c(nnc1[C@H]1CC[C@H](Oc3ccccn3)CC1)C[C@H](O)C2` (atropisomer aS) [listing 1 of 2 here], in data set [3], the Ki was 146 nM.

In data set [3], `Cc1cccc2c1-n1c(nnc1[C@H]1CC[C@H](Oc3ccccn3)CC1)C[C@@H](O)C2` (atropisomer aR) [listing 1 of 2 here] displayed a Ki of 6.3 nM.

On to `OC1Cc2cc(Cl)ccc2-n2c(nnc2[C@H]2CC[C@H](Oc3ccccn3)CC2)C1` (stereo partly specified), for which the efflux ratio in data set [4] was determined as 6.2. Further, the Papp A→B in data set [5] came to 20.3 ×10⁻⁶ cm/s. Moreover, the results for the microsomal CLint in data set [6], in data set [8] and in data set [10] were 0.4 µL/min/mg, 6.3 µL/min/mg and 38 µL/min/mg, respectively. For the same compound, the Selectivity ratio in data set [7] is 1570. The kinetic solubility at 2 h in [9] was 97.5 µM (≈ 40.1 µg/mL).

As to `OC1Cc2ccc(Cl)cc2-n2c(nnc2[C@H]2CC[C@H](Oc3ccccn3)CC2)C1` (stereo partly specified), in [11], the inhibition amounted to 26%.

Consider `Cc1cccc2c1-n1c(nnc1[C@H]1CC[C@H](Oc3ccccn3)CC1)C[C@@H](O)C2` (atropisomer aS) [listing 1 of 2 here], for which the inhibition in data set [1] is 0%.

`OC1Cc2c(Cl)cccc2-n2c(nnc2[C@H]2CC[C@H](Oc3ccccn3)CC2)C1` (stereo partly specified) returned a Ki in data set [3] of 12 nM.

Regarding `Clc1ccc2c(c1)CCCc1nnc([C@H]3CC[C@H](Oc4ccccn4)CC3)n1-2`, the CLH in data set [6] was 7 µL/min/mg; in data set [8] it was 94 µL/min/mg; in data set [10], 124 µL/min/mg.

For the compound `O[C@H]1Cc2cc(Cl)ccc2-n2c(nnc2[C@H]2CC[C@H](Oc3ccccn3)CC2)C1`, the affinity in data set [12], expressed as Ki, was 900 nM. Further, the efflux ratio in data set [4] amounted to 4.7. For the same compound, the Papp A→B in [5] was 20.5 ×10⁻⁶ cm/s. Moreover, the intrinsic clearance (microsomal CLint) turned out to be 4.1 µL/min/mg in [6], 6.7 µL/min/mg in data set [8] and 56.2 µL/min/mg in [10]. Moreover, in data set [7], the Selectivity ratio is 3000. This compound also registered a kinetic solubility at 2 h in data set [9] of 98.9 µM (≈ 40.6 µg/mL).

`O[C@@H]1Cc2cc(Cl)ccc2-n2c(nnc2[C@H]2CC[C@H](Oc3ccccn3)CC2)C1`: the affinity in data set [12] corresponds to a Ki of 200 nM. The efflux ratio in data set [4] is 3.7. Also, the Papp A→B in data set [5] is 22.5 ×10⁻⁶ cm/s. Besides, the figures for the microsomal CLint in data set [6], in [8] and in data set [10] were 3.2 µL/min/mg, 5.1 µL/min/mg and 16.6 µL/min/mg, respectively. The Selectivity ratio in data set [7] stood at 667. Besides, the solubility (kinetic) at 2 h in data set [9] is 95.1 µM (≈ 39.1 µg/mL).

On to `Cc1cccc2c1-n1c(nnc1[C@H]1CC[C@H](Oc3ccccn3)CC1)C[C@@H](O)C2` (atropisomer aR) [listing 2 of 2 here], for which the inhibition in [1] is -6%.

As to `Cc1cccc2c1CC(O)Cc1nnc([C@H]3CC[C@H](Oc4ccccn4)CC3)n1-2` (stereo partly specified), in [1], the inhibition was -9%. The Ki in data set [3] came out at 8.8 nM.

In the case of `Cc1cccc2c1-n1c(nnc1[C@H]1CC[C@H](Oc3ccccn3)CC1)C[C@H](O)C2` (atropisomer aR) [listing 2 of 2 here], the inhibition in data set [1] is -3%.

On to `Cc1ccc2c(c1)CC(O)Cc1nnc([C@H]3CC[C@H](Oc4ccccn4)CC3)n1-2` (stereo partly specified), for which the inhibition constant (Ki) in data set [12] came out at 1070 nM; in data set [3], 0.4 nM. Besides, the IC50 in [2] came to 1.9 nM.

Regarding `Cc1cccc2c1-n1c(nnc1[C@H]1CC[C@H](Oc3ccccn3)CC1)C[C@H](O)C2` (atropisomer aS) [listing 2 of 2 here], in [1], the inhibition was -5%.

In data set [3], `Cc1cccc2c1-n1c(nnc1[C@H]1CC[C@H](Oc3ccccn3)CC1)C[C@@H](O)C2` (atropisomer aS) [listing 2 of 2 here] returned a Ki of 2640 nM. That is a single-digit micromolar value.
